Measurements published in US9556168B2, “N-alkylated indole and indazole compounds as RORgammaT inhibitors and uses thereof” (Merck Sharp & Dohme Corp., priority 2012, dated 2017).
Read-outs that look alike come from different tables or passages of the source.

Biological target: human RORgammaT-Ligand Binding Domain (LBD) (Homo sapiens (Human), UniProt P51449)
Assay: RORγ-Ligand Binding Domain TR-FRET assay (co-activator peptide SRC1_2 recruitment)
Assay type: biochemical
[1] = HIS-tagged RORγ-LBD 3 nM, biotinylated SRC1 LXXLL peptide 100 nM, incubated overnight at 4° C., 665 nm/615 nm signal quotient

Sequence of human RORgammaT-Ligand Binding Domain (LBD) (P51449 269-508): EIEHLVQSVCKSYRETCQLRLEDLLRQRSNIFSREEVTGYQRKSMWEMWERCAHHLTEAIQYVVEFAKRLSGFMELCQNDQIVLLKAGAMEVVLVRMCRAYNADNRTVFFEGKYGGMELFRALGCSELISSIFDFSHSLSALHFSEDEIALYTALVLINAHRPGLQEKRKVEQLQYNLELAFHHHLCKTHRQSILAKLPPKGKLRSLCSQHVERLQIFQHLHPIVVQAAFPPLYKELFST

Structure (SMILES)	IC50 [1] [µM]	IC50 [µM]
O=C(O)c1ccc(-c2nn(Cc3c(F)ccc(F)c3F)c3cccnc23)c(F)c1 [Example 1N, 3-fluoro-4-[1-(2,3,6-trifluorobenzyl)-1H-pyrazolo[4,3-b]pyridin-3-yl]benzoic acid]	> 10	
O=C(O)c1ccc(-c2nn(Cc3c(F)cccc3F)c3cccnc23)c(F)c1 [Example 1P, 4-[1-(2,6-difluorobenzyl)-1H-pyrazolo[4,3-b]pyridin-3-yl]-3-fluorobenzoic acid]	> 10	
CC(c1ccccc1C(F)(F)F)n1nc(-c2ccc(C(=O)O)cc2F)c2ncccc21 (stereo not shown) [Example 1K, 3-fluoro-4-(1-{1-[2-(trifluoromethyl)phenyl]ethyl}-1H-pyrazolo[4,3-b]pyridin-3-yl)benzoic acid]	> 10	
N#Cc1ccc(Cl)cc1Cn1nc(-c2ccc(C(=O)O)cc2F)c2ncccc21 [Example 1J, 4-[1-(5-chloro-2-cyanobenzyl)-1H-pyrazolo[4,3-b]pyridin-3-yl]-3-fluorobenzoic acid]		> 10
